Measurements as given in patent US20240109864A1, “SUBSTITUTED PYRAZOLYL PIPERIDINE CARBOXYLIC ACIDS” (BAYER AKTIENGESELLSCHAFT, priority 2020, published 2024).
Where a name gives a salt, the structure may show the parent alone.

Biological target: T1, recombinant guanylate cyclase reporter cell line (Rattus norvegicus, UniProt P20595)
T1 construct: expressed in transfected cells
T1 sequence (P20595 1-619): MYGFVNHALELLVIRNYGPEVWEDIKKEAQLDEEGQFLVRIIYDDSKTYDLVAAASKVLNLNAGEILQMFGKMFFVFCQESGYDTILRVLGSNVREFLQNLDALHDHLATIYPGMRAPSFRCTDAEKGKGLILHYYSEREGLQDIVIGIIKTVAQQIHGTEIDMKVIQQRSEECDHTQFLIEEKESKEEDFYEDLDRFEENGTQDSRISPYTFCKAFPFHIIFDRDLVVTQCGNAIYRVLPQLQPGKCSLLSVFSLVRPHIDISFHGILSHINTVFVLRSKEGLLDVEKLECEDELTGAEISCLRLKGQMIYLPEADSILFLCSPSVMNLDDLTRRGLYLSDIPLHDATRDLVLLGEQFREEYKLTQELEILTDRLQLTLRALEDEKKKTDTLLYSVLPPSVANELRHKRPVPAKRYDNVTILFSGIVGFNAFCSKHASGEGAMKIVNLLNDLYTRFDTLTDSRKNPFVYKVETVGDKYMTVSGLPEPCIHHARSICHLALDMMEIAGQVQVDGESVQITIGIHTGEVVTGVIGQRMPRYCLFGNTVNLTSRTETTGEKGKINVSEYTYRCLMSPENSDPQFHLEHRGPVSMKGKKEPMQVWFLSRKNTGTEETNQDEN
T1 sequence (P19686 1-690 partner): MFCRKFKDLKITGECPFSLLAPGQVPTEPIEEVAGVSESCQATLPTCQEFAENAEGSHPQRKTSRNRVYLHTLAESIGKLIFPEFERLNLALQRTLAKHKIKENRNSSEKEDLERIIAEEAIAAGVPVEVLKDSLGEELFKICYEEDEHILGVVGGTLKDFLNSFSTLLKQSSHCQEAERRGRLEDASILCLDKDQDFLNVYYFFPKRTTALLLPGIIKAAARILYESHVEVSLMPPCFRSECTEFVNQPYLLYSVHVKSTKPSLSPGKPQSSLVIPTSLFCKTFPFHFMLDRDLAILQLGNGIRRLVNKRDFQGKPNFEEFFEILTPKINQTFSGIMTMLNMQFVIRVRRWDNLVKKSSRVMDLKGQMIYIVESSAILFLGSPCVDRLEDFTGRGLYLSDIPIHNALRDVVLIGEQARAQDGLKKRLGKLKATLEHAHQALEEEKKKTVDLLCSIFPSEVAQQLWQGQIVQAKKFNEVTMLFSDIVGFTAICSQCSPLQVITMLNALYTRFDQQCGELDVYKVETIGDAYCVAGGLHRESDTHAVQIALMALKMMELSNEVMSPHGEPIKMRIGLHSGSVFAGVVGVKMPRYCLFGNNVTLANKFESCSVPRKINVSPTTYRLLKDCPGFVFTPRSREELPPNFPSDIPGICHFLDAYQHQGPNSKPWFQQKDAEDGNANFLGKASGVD
Test: Effect on a recombinant guanylate cyclase reporter cell line
Format: cell-based
Conditions: in some cases mean values from individual determinations; for MEC: MEC = minimum effective concentration; for EC50: half maximal effective concentration
Experimental: The cellular activity of the compounds according to the invention was determined using a recombinant guanylate cyclase reporter cell line, as described in F. Wunder et al., Anal. Biochem. 339, 104-112 (2005).

Row | Compound | MEC | EC50 | MEC (hydrochloride)
1 | CCCOC(=O)N1CCN(c2ccc(-c3ccc(Cl)cc3N3CCCC(n4ncc(C(=O)O)c4C(F)(F)F)C3)cc2)CC1 (single isomer, unassigned) [Example 58, 1-[1-[5-Chloro-2-[4-(4-propoxycarbonylpiperazin-1-yl)phenyl]phenyl]-3-piperidyl]-5-(trifluoromethyl)pyrazole-4-carboxylic acid] | 10.0 nM | 42.5 nM | –
2 | CS(=O)(=O)N1CCN(c2ccc(-c3ccc(Cl)cc3N3CCCC(n4ncc(C(=O)O)c4C(F)(F)F)C3)cc2)CC1 (single isomer, unassigned) [Example 67, 1-[1-[5-Chloro-2-[4-(4-methylsulfonylpiperazin-1-yl)phenyl]phenyl]-3-piperidyl]-5-(trifluoromethyl)pyrazole-4-carboxylic acid hydrochloride] | 30.0 nM | 45 nM | –
3 | CN1CCN(c2ccc(-c3ccc(Cl)cc3N3CCCC(n4ncc(C(=O)O)c4C(F)(F)F)C3)cc2)CC1 (single isomer, unassigned) [Example 1, 1-[1-[5-Chloro-2-[4-(4-methylpiperazin-1-yl)phenyl]phenyl]-3-piperidyl]-5-(trifluoromethyl)pyrazole-4-carboxylic acid] | 10.0 nM | 47.5 nM | –
4 | CCNC(=O)N1CCN(c2ccc(-c3ccc(Cl)cc3N3CCCC(n4ncc(C(=O)O)c4C(F)(F)F)C3)cc2)CC1 (single isomer, unassigned) [Example 66, 1-[1-[5-Chloro-2-[4-[4-(ethylcarbamoyl)piperazin-1-yl]phenyl]phenyl]-3-piperidyl]-5-(trifluoromethyl)pyrazole-4-carboxylic acid] | 3.0 nM | 28.5 nM | –
5 | O=C(O)c1cnn(C2CCCN(c3cc(Cl)ccc3-c3ccc(N4CCN(CC(F)(F)F)CC4)nc3)C2)c1C(F)(F)F (single isomer, unassigned) [Example 74, 1-[1-[5-Chloro-2-[6-[4-(2,2,2-trifluoroethyl)piperazin-1-yl]-3-pyridyl]phenyl]-3-piperidyl]-5-(trifluoromethyl)pyrazole-4-carboxylic acid hydrochloride] | – | 10.5 nM | 1.0 nM
6 | O=C(O)c1cnn(C2CCCN(c3cc(Cl)ccc3-c3ccc(N4CCN(CC(F)F)CC4)cc3)C2)c1C(F)(F)F (single isomer, unassigned) [Example 13, 1-[1-[5-Chloro-2-[4-[4-(2,2-difluoroethyl)piperazin-1-yl]phenyl]phenyl]-3-piperidyl]-5-(trifluoromethyl)pyrazole-4-carboxylic acid] | 3.0 nM | 54 nM | –
7 | CCN1CCN(c2ccc(-c3ccc(Cl)cc3N3CCCC(n4ncc(C(=O)O)c4C(F)(F)F)C3)cc2F)CC1 (single isomer, unassigned) [Example 70, 1-[1-[5-Chloro-2-[4-(4-ethylpiperazin-1-yl)-3-fluoro-phenyl]phenyl]-3-piperidyl]-5-(trifluoromethyl)pyrazole-4-carboxylic acid] | 30.0 nM | 99 nM | –
8 | O=C(O)c1cnn(C2CCCN(c3cc(Cl)ccc3-c3ccc(N4CCN(C(=O)C5CC5F)CC4)cc3)C2)c1C(F)(F)F (single isomer, unassigned) [Example 44, 1-[1-[5-Chloro-2-[4-[4-(2-fluorocyclopropanecarbonyl)piperazin-1-yl]phenyl]phenyl]-3-piperidyl]-5-(trifluoromethyl)pyrazole-4-carboxylic acid] | 10.0 nM | 34.5 nM | –
9 | CCC(=O)N1CCC(c2ccc(-c3ccc(Cl)cc3N3CCCC(n4ncc(C(=O)O)c4C(F)(F)F)C3)cc2)CC1 (single isomer, unassigned) [Example 82, 1-[1-[5-Chloro-2-[4-(1-propanoyl-4-piperidyl)phenyl]phenyl]-3-piperidyl]-5-(trifluoromethyl)pyrazole-4-carboxylic acid hydrochloride] | 0.3 nM | 3.9 nM | –
10 | CCCN1CCN(c2ccc(-c3ccc(Cl)cc3N3CCCC(n4ncc(C(=O)O)c4C(F)(F)F)C3)cc2)CC1 (single isomer, unassigned) [Example 4, 1-[1-[5-Chloro-2-[4-(4-propylpiperazin-1-yl)phenyl]phenyl]-3-piperidyl]-5-(trifluoromethyl)pyrazole-4-carboxylic acid hydrochloride] | 3.0 nM | 16 nM | –
11 | COCCCOC(=O)N1CCN(c2ccc(-c3ccc(Cl)cc3N3CCCC(n4ncc(C(=O)O)c4C(F)(F)F)C3)cc2)CC1 (single isomer, unassigned) [Example 63, 1-[1-[5-Chloro-2-[4-[4-(3-methoxypropoxycarbonyl)piperazin-1-yl]phenyl]phenyl]-3-piperidyl]-5-(trifluoromethyl)pyrazole-4-carboxylic acid] | 10.0 nM | 27 nM | –
12 | O=C(O)c1cnn(C2CCCN(c3cc(Cl)ccc3-c3ccc(C4CC4)nc3)C2)c1C(F)(F)F (single isomer, unassigned) [Example 79, 1-[1-[5-Chloro-2-(6-cyclopropyl-3-pyridyl)phenyl]-3-piperidyl]-5-(trifluoromethyl)pyrazole-4-carboxylic acid] | 1.0 nM | 3.6 nM | –
13 | CCN1CCN(c2ccc(-c3ccc(Cl)cc3N3CCCC(n4ncc(C(=O)O)c4C(F)(F)F)C3)c(C)c2)CC1 (single isomer, unassigned) [Example 73, 1-[1-[5-Chloro-2-[4-(4-ethylpiperazin-1-yl)-2-methyl-phenyl]phenyl]-3-piperidyl]-5-(trifluoromethyl)pyrazole-4-carboxylic acid hydrochloride] | 30.0 nM | 58 nM | –
14 | O=C(O)c1cnn(C2CCCN(c3cc(Cl)ccc3-c3ccc(N4CCN(CCC(F)(F)F)CC4)nc3)C2)c1C(F)(F)F (single isomer, unassigned) [Example 76, 1-[1-[5-Chloro-2-[6-[4-(3,3,3-trifluoropropyl)piperazin-1-yl]-3-pyridyl]phenyl]-3-piperidyl]-5-(trifluoromethyl)pyrazole-4-carboxylic acid hydrochloride] | 1.0 nM | 4.8 nM | –
15 | CC(=O)N1CCN(c2ccc(-c3ccc(Cl)cc3N3CCCC(n4ncc(C(=O)O)c4C(F)(F)F)C3)cc2)CC1 (single isomer, unassigned) [Example 36, 1-[1-[2-[4-(4-Acetylpiperazin-1-yl)phenyl]-5-chloro-phenyl]-3-piperidyl]-5-(trifluoromethyl)pyrazole-4-carboxylic acid] | 10.0 nM | 35.5 nM | –
16 | O=C(O)c1cnn(C2CCCN(c3cc(Cl)ccc3-c3ccc(N4CCN(C(=O)OCCOC(F)(F)F)CC4)cc3)C2)c1C(F)(F)F (single isomer, unassigned) [Example 64, 1-[1-[5-Chloro-2-[4-[4-[2-(trifluoromethoxy)ethoxycarbonyl]piperazin-1-yl]phenyl]phenyl]-3-piperidyl]-5-(trifluoromethyl)pyrazole-4-carboxylic acid] | 30.0 nM | 84 nM | –
17 | CC(C)(F)CN1CCN(c2ccc(-c3ccc(Cl)cc3N3CCCC(n4ncc(C(=O)O)c4C(F)(F)F)C3)cc2)CC1.Cl (single isomer, unassigned) [Example 10, 1-[1-[5-Chloro-2-[4-[4-(2-fluoro-2-methyl-propyl)piperazin-1-yl]phenyl]phenyl]-3-piperidyl]-5-(trifluoromethyl)pyrazole-4-carboxylic acid hydrochloride] | 3.0 nM | 24.5 nM | –
18 | CCOC(=O)N1CCN(c2ccc(-c3ccc(Cl)cc3N3CCCC(n4ncc(C(=O)O)c4C(F)(F)F)C3)cc2)CC1 (single isomer, unassigned) [Example 55, 1-[1-[5-Chloro-2-[4-(4-ethoxycarbonylpiperazin-1-yl)phenyl]phenyl]-3-piperidyl]-5-(trifluoromethyl)pyrazole-4-carboxylic acid] | 3.0 nM | 10.4 nM | –
19 | O=C(O)c1cnn(C2CCCN(c3cc(Cl)ccc3-c3ccc(N4CCN(C[C@@H]5C[C@@H]5F)CC4)cc3)C2)c1C(F)(F)F (single isomer, unassigned) [Example 8, hydrochloride] | – | 53 nM | 10.0 nM
